# According to patent US20070197599A1, “HYDROXYLAMINES AND DERIVATIVES AS ANTI-ANGIOGENIC AGENTS” (priority 2006, published 2007):
# Several values for one entry are separate records, joined by “and”; a condition that tells them apart may be missing. Identical values can stand only once.
# Columns and labels:
# [1] = system: H2O2-induced angiogenesis in the CAM model; experiment: H2O2-induced angiogenesis in the chick chorioallantoic membrane (CAM) model; type: in vivo
# Protocol: Neovascularization was examined by previously described methods (see references at the end of Example 5). Ten-day-old fertilized chicken eggs were incubated at 37° C. with 55% relative humidity. In the dark with the help of candling lamp and using a hypodermic needle a small hole was punctured in the shell covering the air sac. A second hole was punctured on the wider side of the egg above an avascular area of the embryonic membrane. An artificial air sac was created below the second hole by applying gentle vacuum to the first hole using a small rubber squeeze bulb. The vacuum caused the separation of chorioallantoic membrane (CAM) from the shell. An approximately 1.0 cm^2 widow was cut in the shell over the dropped CAM with the use of a mini drill. The underlying CAM was accessed through this small window.
# Filter disks were punched using a small puncher from filter paper #1 (Whatman International, United Kingdom). Filter disks were soaked in 3 mg/ml cortisone acetate solution (95% ethanol and water) and air-dried under sterile condition. For inducing angiogenesis, sterile filter disks were saturated with bFGF (1 μg/ml) or other pro-angiogenesis factors and control disks were saturated with PBS without Calcium and Magnesium.
# Using sterile forceps one filter/CAM was placed from the window. The window was sealed with Highland brand transparent tape. After 24 hr, 10-25 µl of test agent (inhibitor) was injected intravenously or added topically into the CAM membrane of bFGF or other pro-angiogenesis factors stimulated CAMs. • Control filter disks received PBS without Calcium and Magnesium. • After 48 hr, CAM tissue directly beneath filter disk was harvested and placed in a 35-mm Petri dish. Eight-Ten eggs/treatment group was used.
# A pro-angiogenic agent (see Examples, below) was added to induce new blood vessel branches on the CAM of 10-day old embryos. Sterile disks of #1 filter paper (Whatman International, United Kingdom) were pre-treated with 3 mg/ml cortisone acetate, and air dried under sterile conditions. The disks were then suspended in PBS (Phosphate Buffered Saline) and placed on growing CAMs. Filters treated with TPH (TEMPOL-H) or TEMPOL and/or H2O2 or TPH and/or bFGF or VEGF were placed on the first day of the 3-day incubation.
# Digital Images and Microscopic analysis of CAM sections: CAM sections from Petri dish were examined using SV6 stereomicroscope (Karl Zeiss) at 50× magnification. Digital images were captured using a 3-CCD color video camera system (Toshiba America, New York, N.Y.). These images were analyzed using Image-Pro Plus software (Media Cybernetics). The number of branch points in blood vessels within the circular region superimposed to the area of a filter disk was counted for each section. After incubation at 37° C. with 55% relative humidity for 3 days, the CAM tissue directly beneath each filter disk was resected from control and treated CAM samples. Tissues were washed three times with PBS. Sections were placed in a 35-mm Petri dish (Nalge Nunc; Rochester, N.Y.) and were examined under a SV6 stereomicroscope (Karl Zeiss; Thornwood, N.Y.) at 50× magnification. Digital images of CAM sections adjacent to filters were collected using a 3-CCD color video camera system (Toshiba America; New York, N.Y.) and analyzed with the Image-Pro Plus software (Media Cybernetics; Silver Spring, Md.). The number of vessel branch points contained in a circular region equal to the area of a filter disk was counted for each section. Percent inhibition data are expressed as the quotient of the experimental value minus the negative control value divided by the difference between the positive control value and the negative control value. One image was counted in each CAM preparation, and findings from eight CAM preparations were analyzed for each treatment condition. In addition, each experiment was performed three times. […]
# [2] = In vitro stability of Compound 1 in dog plasma; type: in vitro ADME; conditions: formed from OT-551 (Compound 1, 1000 ng/mL)
# Protocol: The active metabolite of Compound 1 (Cyclopropanecarboxylic acid 1-hydroxy-2,2,6,6-tetramethyl-piperidin-4-yl ester) is TPH. The objective of this analysis was to determine the in vitro half-life of Compound 1 in rat, rabbit, dog, and human plasma under standardized incubation conditions.
# Compound 1 was incubated with pooled rat, rabbit, dog, and human plasma for various times under standardized incubation conditions. Pre-labeled tubes containing pooled plasma from rats, rabbits, dogs, and humans were pre-incubated in a shaking 37° C. water bath. A Compound 1 solution was added to the tubes at a final concentration of 1000 ng/mL. Time zero samples (n=5) were immediately removed and transferred into tubes containing a stabilizer solution (DTPA, acetylcysteine and ascorbic acid), the LC/MS/MS assay internal standard and methanol. […] The tubes were vortexed, placed on ice, followed by centrifugation. One hundred-μL aliquots of the supernatant were transferred into HPLC sample vials. Additional tubes (n=5 at each time point) were incubated for 5, 10, 20, 30, 60, 120, and 240 minutes at 37° C. and thereafter processed. The amount of Compound 1 and TPH in each incubated sample was quantified using validated LC/MS/MS assays.
# [3] = Single-dose 10-minute intravenous infusion toxicokinetics in Sprague-Dawley rats; type: in vivo
# Protocol: Blood for toxicokinetic evaluations was collected at pre-determined time points during and after the infusion.
# All pharmacokinetic analyses were performed using Kinetica®, version 4.2 (Innaphase, Philadelphia, Pa.).
# Cmax is the observed maximum plasma concentration
# Tmax is the time Cmax is reached
# T1/2 is the elimination half-life
# The plasma concentrations were rounded to the nearest tenth of a ng/mL before the calculations. […] Nominal time points were used for all calculations.
# [4] = system: selenite induced cataract; conditions: mice; cited from earlier work
# [5] = H2O2 (88 μM, 30 ng) + 100 μg test agent
# [6] = H2O2 (88 μM, 30 ng) + 200 μg test agent
# [7] = H2O2 (88 μM, 30 ng) + 400 μg test agent
# [8] = H2O2 (88 μM, 30 ng) + 800 μg test agent
# [9] = after Compound 1 10 mg/kg iv infusion
# [10] = after Compound 1 30 mg/kg iv infusion
# [11] = after Compound 1 100 mg/kg iv infusion
smiles,measurement,setting,value
CC1(C)CC(O)CC(C)(C)N1O [TPH],inhibition of angiogenesis induced by super-maximal concentrations of H2O2,"[1]; CAM model, Tables 1A and 1B",effectively inhibited
same,% Inhibition ± SD,[1]; [5],28.0 ± 13.6 %
same,Branch pts ± SEM,[1]; [5],155 ± 14.4
same,% Inhibition ± SD,[1]; [6],32.9 ± 8.4 %
same,Branch pts ± SEM,[1]; [6],151.3 ± 15.3
same,% Inhibition ± SD,[1]; [7],44.7 ± 6.6 %
same,Branch pts ± SEM,[1]; [7],137.2 ± 6.9
same,% Inhibition ± SD,[1]; [8],55.7 ± 7.2 %
same,Branch pts ± SEM,[1]; [8],127.3 ± 6.4
same,Concentration of TPH in plasma,[2]; incubation 0 min,0.00 ± 0.00 ng/mL
same,Concentration of TPH in plasma,[2]; incubation 5 min,5.85 ± 0.73 ng/mL
same,Concentration of TPH in plasma,[2]; incubation 10 min,8.77 ± 0.65 ng/mL
same,Concentration of TPH in plasma,[2]; incubation 20 min,12.79 ± 0.74 ng/mL
same,Concentration of TPH in plasma,[2]; incubation 30 min,16.22 ± 0.67 ng/mL
same,Concentration of TPH in plasma,[2]; incubation 60 min,25.68 ± 1.04 ng/mL
same,Concentration of TPH in plasma,[2]; incubation 120 min,39.31 ± 1.09 ng/mL
same,Concentration of TPH in plasma,[2]; incubation 240 min,53.92 ± 1.68 ng/mL
same,plasma levels of TPH at 4 hr post infusion,[3]; after Compound 1 10 mg/kg dose,still quantifiable
same,AUC(0-4.167 hr) of TPH,[3]; [9],1694.8 ng·h/mL
same,Cmax of TPH,[3]; [9],2481.7 ng/mL
same,Tmax of TPH,[3]; [9],10 min
same,T½ of TPH (elimination half-life),[3]; [9],24 min
same,Plasma concentration of TPH,"[3]; after Compound 1 10 mg/kg iv infusion, 0.167 hr",2481.7 ± 325.8 ng/mL
same,Plasma concentration of TPH,"[3]; after Compound 1 10 mg/kg iv infusion, 1.167 hr",204.7 ± 85.6 ng/mL
same,Plasma concentration of TPH,"[3]; after Compound 1 10 mg/kg iv infusion, 2.167 hr",25.2 ± 24.0 ng/mL
same,Plasma concentration of TPH,"[3]; after Compound 1 10 mg/kg iv infusion, 4.167 hr",4.2 ± 10.3 ng/mL
same,AUC of TPH,"[3]; after Compound 1 10 mg/kg iv infusion, to time infinity",1697.5 ng·h/mL
same,Cmax of TPH,[3]; [10],8337.7 ng/mL
same,Tmax of TPH,[3]; [10],10 min
same,Plasma concentration of TPH,"[3]; after Compound 1 30 mg/kg iv infusion, 0.167 hr",8337.7 ± 2099.5 ng/mL
same,Plasma concentration of TPH,"[3]; after Compound 1 30 mg/kg iv infusion, 4.167 hr",53.8 ± 29.7 ng/mL
same,Cmax of TPH,[3]; [11],29020.8 ng/mL
same,Tmax of TPH,[3]; [11],10 min
same,Plasma concentration of TPH,"[3]; after Compound 1 100 mg/kg iv infusion, 0.167 hr",29020.8 ± 11713.7 ng/mL
same,Plasma concentration of TPH,"[3]; after Compound 1 100 mg/kg iv infusion, 4.167 hr",160.0 ± 97.5 ng/mL
same,Tmax of TPH,[3]; after Compound 1 200 mg/kg iv infusion,10 min
same,Plasma concentration of TPH,"[3]; after Compound 1 200 mg/kg iv infusion, 0.167 hr",60802.2 ± 8922.5 ng/mL
same,Plasma concentration of TPH,"[3]; after Compound 1 200 mg/kg iv infusion, 4.167 hr",524.5 ± 237.0 ng/mL
same,Cmax of TPH,"[3]; after Compound 1 200 mg/kg iv infusion, 200 mg/kg",60802.1 ng/mL and 60802.2 ng/mL
same,levels of TPH at four hours after terminating the infusion relative to concentrations immediately after terminating the infusions,"[3]; after Compound 1 30, 100 and 200 mg/kg",less than 1%
same,prevention of selenite induced cataract,[4],effective
